# Test system: lipid absorption in the digestive tract
# Experiment: Amount of lipid absorption from the digestive tract into blood (14C-triolein, plasma radioactivity)
# Assay type: in vivo, mouse
# Details: male Balb/c mice, oral 14C-triolein, plasma 6 hours after administration, relative to untreated control = 1; FIG. 3
# Experimental: Triolein (Amersham, 100 μCi/mL) radiolabeled with ^14C was mixed with 1% (w/v) sodium carboxylmethyl cellulose (CMC-Na) and 1% (v/v) Tween 80, and then 0.1 mL of the mixture was forcibly administered into each mouse through an oral zonde so that 1 μCi could be delivered to each mouse. Here, the mouse in the control group (an 8-week old male Balb/c with body weight of 25 g) was treated with 400 μg of Orlistat (20 mg/kg), which is used as an obesity treatment, and the mouse in the experimental group (an 8-week old male Balb/c with body weight of 25 g) was treated with 0.5 mL of the water extract (50 mg/mL) of Fomitella […] prepared in the Example after concentrating it into 0.1 mL. Six hours after the administration, blood samples were collected from the mice, and plasma was obtained by centrifuging the blood at […] at the rate of 14000 rpm, and the radioactive dose was measured by a liquid scintillator (Beta counter, Beckman LS1801). The control group was not treated with anything. The amount of lipid absorption was determined as a relative value by dividing the radioactive dose of each group into the radioactive dose of the control group, in which the radioactive dose of the control group was set at '1'. […] In particular, the result on the control group in FIG. 3 was obtained from the blood sample of a mouse not treated with any lipid absorption inhibitor.
smiles,measurement,value
"CCCCCCCCCCC[C@@H](C[C@@H]1OC(=O)[C@H]1CCCCCC)OC(=O)[C@H](CC(C)C)NC=O [Orlistat, orlistat]",inhibitory effect upon lipid absorption,significant inhibitory effect upon lipid absorption

# From patent US20160375073A1, “COMPOSITION FOR TREATMENT OR PREVENTION OF OBESITY, CONTAINING WATER EXTRACTS OF FOMITELLA FRAXINEA” (POSTECH ACADEMY-INDUSTRY FOUNDATION, priority 2011, published 2016)
